The record followed here is PubChem BioAssay (NCI).

Some test systems named below: SF-268 CNS; OVCAR-8 ovarian; NCI-H23 lung; ACHN renal; UACC-62 melanoma; COLO 205 colon; SN12C renal; SF-539 CNS; PC-3 prostate.
Common to all, as to assay: NCI anticancer screen, dose series, 48 h

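Briefly, cells in 96-well plates were exposed to five compound concentrations for 48 h, and endpoints were estimated by linear interpolation. The concentration for 50% growth inhibition is given as GI50. The concentration for full growth arrest is given as TGI.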

On to `CCCc1nn(C)c(CCC(=O)N(Cc2ccccc2)Cc2ccccc2)c1CC`, for which the TGI in the test with SF-268 CNS, with OVCAR-8 ovarian, in the test on NCI-H23 lung, with ACHN renal, with UACC-62 melanoma and in the test with COLO 205 colon was above 100 µM throughout. In addition, the TGI in the test on SN12C renal and with SF-539 CNS was above 100 µM throughout.

For `CC1=C(C(=O)Nc2ccccc2C)C(c2ccccc2O)C(C(=O)Nc2ccccc2C)=C(C)N1`, the TGI was 70.1 µM in the test on SF-268 CNS; 40.2 µM with OVCAR-8 ovarian; above 100 µM in the test on NCI-H23 lung; 47.9 µM with ACHN renal; 35.7 µM with UACC-62 melanoma; 44 µM with SN12C renal. Further, the TGI with SF-539 CNS came to 36.5 µM.

In the case of `CCCCCCCCCCCCCP(=O)(OC)OC`, the TGI in the test on OVCAR-8 ovarian amounted to 31.9 µM; in the test on NCI-H23 lung, 35.6 µM; in the test on ACHN renal it was 32.4 µM; in the test on UACC-62 melanoma it was 32.2 µM; in the test with COLO 205 colon it was 34.2 µM; with SN12C renal, 35 µM. Also, the TGI in the test with SF-539 CNS was found to be 30.9 µM.

For `Cc1ccc(-c2nc3ccccc3c(=O)n2NC2OC(CO)C(O)C(O)C2O)cc1` (stereo not drawn), the TGI with SF-268 CNS, in the test with OVCAR-8 ovarian, in the test on NCI-H23 lung, in the test with ACHN renal, in the test with UACC-62 melanoma and in the test with COLO 205 colon was above 100 µM in each case. Further, the TGI in the test with SN12C renal and with SF-539 CNS was above 100 µM in each case.

`CCCCCC1CC=CC(NC(=O)OCc2ccccc2)C1/C=C/CCCC1OCCO1` (stereo not drawn): the TGI in the test on SF-268 CNS, with OVCAR-8 ovarian, with NCI-H23 lung, with ACHN renal, with UACC-62 melanoma and with COLO 205 colon was above 100 µM throughout. The TGI in the test on SN12C renal and in the test on SF-539 CNS was above 100 µM throughout.

As for `CCOP(=O)(OCC)C(NC(c1ccccc1)c1ccccc1)c1ccsc1` (stereo not drawn), the GI50 in the test on SF-268 CNS was 15.5 µM; with OVCAR-8 ovarian, 23.5 µM; in the test on NCI-H23 lung it was 19.9 µM; in the test with UACC-62 melanoma, 12.8 µM; in the test on PC-3 prostate it was 10.9 µM; in the test on SN12C renal, 16.7 µM. Further, the GI50 in the test on SF-539 CNS was 24 µM. Besides, the TGI in the test on SF-268 CNS stood at 36.2 µM; in the test with OVCAR-8 ovarian it was 57 µM; in the test with NCI-H23 lung, 35.5 µM; in the test with UACC-62 melanoma, 25.5 µM; with PC-3 prostate, 23.9 µM; in the test with SN12C renal, 30.3 µM. Moreover, the TGI in the test with SF-539 CNS is 43.1 µM.

For the molecule `CN(C)c1ccc2cc3c(cc2c1)Oc1ccccc1N3.[Cl][Zn][Cl]`, the GI50 in the test on SF-268 CNS was 13.6 µM; in the test with OVCAR-8 ovarian, 5.64 µM; in the test with NCI-H23 lung it was 4.74 µM; with ACHN renal it was 1.64 µM; in the test on UACC-62 melanoma it was 3.43 µM; in the test on PC-3 prostate, 3.54 µM. The figures for the GI50 with SN12C renal and in the test on SF-539 CNS were 11.6 µM and 3.68 µM, respectively. In addition, the TGI with SF-268 CNS is 27.2 µM; in the test on OVCAR-8 ovarian, above 100 µM; with NCI-H23 lung, 21.7 µM; in the test with ACHN renal, 3.22 µM; in the test with UACC-62 melanoma it was 13.4 µM; in the test with PC-3 prostate, 14.1 µM. Besides, the TGI came to 63.9 µM in the test on SN12C renal and 15.6 µM in the test on SF-539 CNS.

On to `CC(=O)OC(C)(C)C[N+](=O)[O-]`, for which the TGI in the test with SF-268 CNS, with OVCAR-8 ovarian, with NCI-H23 lung, in the test with ACHN renal, in the test with COLO 205 colon and with SN12C renal was above 100 µM throughout. The same molecule registered a TGI in the test with SF-539 CNS above 100 µM.

`COC(=O)/C(=N\Nc1nc(=S)[nH]n1N)C(C#N)c1ccc(Cl)cc1` (stereo not drawn): the TGI in the test on SF-268 CNS, in the test with OVCAR-8 ovarian, in the test on NCI-H23 lung, with ACHN renal, in the test with UACC-62 melanoma and in the test with COLO 205 colon was above 100 µM each time. Also, the TGI in the test on SN12C renal and with SF-539 CNS was above 100 µM in each case.

Turning to `CCN(CC)CCCNc1nccc2c(C)c3[nH]c4ccncc4c(=O)c3cc12`, the TGI in the test on SF-268 CNS came to 4.46 µM; with OVCAR-8 ovarian, 2.36 µM; with NCI-H23 lung, 7.34 µM; in the test on ACHN renal it was 13 µM; in the test on UACC-62 melanoma, 3.72 µM; with COLO 205 colon, 12.5 µM. For the same molecule, the TGI with SN12C renal amounted to 8.9 µM; with SF-539 CNS, 11.2 µM.

For `c1ccc(N2CCN(CCCN3CCc4c([nH]c5ccccc45)C3c3cccnc3)CC2)cc1` (stereo not drawn), the TGI is above 100 µM in the test with OVCAR-8 ovarian; above 100 µM in the test with NCI-H23 lung; above 100 µM with ACHN renal; above 100 µM with UACC-62 melanoma; 56.2 µM with COLO 205 colon; 99.2 µM in the test on SN12C renal. The molecule also yielded a TGI in the test on SF-539 CNS above 100 µM.

As to `CCC1=CCC(P(=O)(c2ccccc2)c2ccccc2)CC1C` (stereo not drawn), the TGI in the test on SF-268 CNS, in the test on OVCAR-8 ovarian, in the test on NCI-H23 lung, in the test on UACC-62 melanoma, with COLO 205 colon and in the test on SN12C renal was above 100 µM each time. The TGI with SF-539 CNS was above 100 µM.

Consider `CC[C@@]1(O)C(=O)OCc2c1cc1n(c2=O)Cc2cc3cccc(N)c3nc2-1`, for which the GI50 was 2.51 µM with SF-268 CNS; 12.1 µM in the test on OVCAR-8 ovarian; 5.81 µM with NCI-H23 lung; 2.81 µM in the test with ACHN renal; 4.74 µM with UACC-62 melanoma; 13.9 µM with COLO 205 colon. Further, the GI50 was 3.58 µM with SN12C renal and 3.7 µM with SF-539 CNS. For the same molecule, the TGI was above 100 µM with SF-268 CNS; above 100 µM in the test with OVCAR-8 ovarian; 31.5 µM with NCI-H23 lung; 10.3 µM in the test with ACHN renal; 31.7 µM in the test with UACC-62 melanoma; above 100 µM with COLO 205 colon. Further, the TGI with SN12C renal is above 100 µM; in the test with SF-539 CNS it was 17 µM.

With `C=C(C)C1CC=C(C)C(O)([C@@]2(O)C[C@H](C(=C)C)CC=C2C)C1` (stereo partly drawn), the TGI in the test with SF-268 CNS is above 100 µM; with OVCAR-8 ovarian it was 35.5 µM; with NCI-H23 lung it was 43.3 µM; in the test on ACHN renal, 47.7 µM; with UACC-62 melanoma it was 55.9 µM; with SN12C renal, 33.2 µM. This molecule also registered a TGI in the test on SF-539 CNS of 42.1 µM.
